Results: patent US20080306248A1, “Conjugate of Biomacromolecule with Bioreductive and Preparative Method Thereof” (priority 2005, published 2008)
≈ marks a conversion by molar mass, not a printed value.

Legend:
SMMC-7721 = experiment: MTT cytotoxicity assay, SMMC-7721 cells; assay type: cell-based
Procedure: (§1) Conjugate cytotoxicity was assessed using an MTT assay. Cells (SMMC-7721, L-02, etc.) were seeded at a density of 1×10^4 cells/well […] to the assay. At the start of the experiment the culture medium was removed and the conjugate (0-2 mg/lnl in complete medium) was added (100 ul). After 4 h, MTT (20 ul; 5 mg/ml in PBS) was added and the plates re-incubated for a further 5 h. the formazan crystals were dissolved in DMSO and the absorbance read at 550 nm using a microtitre plate reader. The results were expressed as viability(%) relative to a control containing no conjugate.

L-02 = experiment: MTT cytotoxicity assay, L-02 cells; assay type: cell-based; details: concentration of MMC or conjugate up to 8 ugMMC/ml
Procedure: as §1

Procedure for Caco-2 cell monolayers: The transcellular transport of conjugate was evaluated using Caco-2 cell monolayers. Caco-2 cells were maintained in plastic culture flasks. These stock cells were subcultivated before reaching confluence. The medium consisted of Dulbecco's Modified Eagle's Medium supplemented with 10% fetal bovine serum, 1% nonessential amino acid, 2 mM L-glutamine and 100 IU/mL penicillin-10 ug/mL streptomycin. The monolayer cultures were grown in an atmosphere of 5% CO2-95% O2 at 37° C. The cells were given fresh growth medium every 2 days. When the Caco-2 cells had reached confluence, they were harvested with 0.25 mM trypsin and 0.2% EDTA (0.5-1 min at 37° C.), resuspended, and seeded into a new flask, Caco-2 cells were used between passages 45 and 60. For the transport study, Caco-2 cells were seeded at a cell density of 8×10^4 cells/cm^2 on 6-well (3-mm pores, 4.71-cm^2 growth area) Transwell™. The cell monolayers were fed a fresh growth medium every 2 days and were used at 16 to 21 days for the transport experiments. TEER was used to monitor the integrity of the monolayers. Monolayers with TEER above 350/cm^2 (after subtracting the back group value of the transwell) were used in the study.

Compound: CO[C@@]12[C@H](COC(N)=O)C3=C(C(=O)C(C)=C(N)C3=O)N1C[C@@H]1N[C@@H]12 [MMC, mitomycinC, reference compound]
- IC50 (SMMC-7721; Homo sapiens, SMMC-7721, viability relative to control containing no conjugate): 1.6 µg/mL (≈ 4.79 µM)
- viability of L-02 (L-02): unchanged

Compound: Fe-transferrin-MMC
- IC50 to SMMC-7721 (SMMC-7721; viability relative to control containing no conjugate): 0.5 ug MMC/ml
- viability of L-02 (L-02): unchanged
- transcellular transport by caco-2 cells (transport fraction) (Caco-2 cell monolayers): 20 % of total drug
